# Square brackets hold non-standard residues; d marks the D form. Peptide text beside a SMILES is read from it. Phe(3-F) = N[C@@H](Cc1cccc(F)c1)C(=O)O; hPhe = N[C@@H](CCc1ccccc1)C(=O)O; Abu = CC[C@H](N)C(=O)O; azaGly = NNC(=O)O
# Experiments:
# [1] = target: T1, CYP1A2 (Homo sapiens, UniProt P05177); test: Human CYP1A2 assay (Vivid CYP1A2 Blue Screening Kit); format: in vitro ADME; settings: 20 μM cutoff; read-out: Metabolism: CYP enzymes (20 μM cutoff or IC50) CYP1A2
# T1 construct: purchased PanVera Vivid CYP1A2 Blue Screening Kit; host or cells: insect cells infected with baculovirus (microsomes)
# T1 sequence (P05177 2-516 limits assumed): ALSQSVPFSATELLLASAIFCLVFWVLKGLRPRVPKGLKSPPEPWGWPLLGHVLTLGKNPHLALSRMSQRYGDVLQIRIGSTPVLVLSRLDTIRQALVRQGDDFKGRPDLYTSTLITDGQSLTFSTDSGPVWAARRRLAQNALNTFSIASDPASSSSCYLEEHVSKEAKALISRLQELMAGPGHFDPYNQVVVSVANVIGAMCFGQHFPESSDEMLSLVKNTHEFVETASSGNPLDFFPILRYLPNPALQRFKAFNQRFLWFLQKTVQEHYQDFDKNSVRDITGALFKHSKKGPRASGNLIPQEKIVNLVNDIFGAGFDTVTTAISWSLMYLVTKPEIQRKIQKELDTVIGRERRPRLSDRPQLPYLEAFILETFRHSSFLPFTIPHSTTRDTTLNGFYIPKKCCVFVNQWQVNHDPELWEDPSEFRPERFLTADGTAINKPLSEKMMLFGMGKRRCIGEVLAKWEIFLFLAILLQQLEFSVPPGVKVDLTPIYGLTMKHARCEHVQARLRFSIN
# Experimental: This assay was used to determine the effect of a compound of the invention on the CYP1A2 liver metabolizing enzyme.
# Vivid® CYP1A2 Blue Screening Kit from PanVera was used.
# Vivid®CYP450 Reaction Buffer I: 200 mM potassium phosphate buffer, pH 8.
# CYP1A2 baculosoniese® reagent: CYP1A2 and […] (P450-specific content: 1.1 μM). Microsomes prepared from insect cells that were infected with baculovirus containing the cDNA for human CYP1A2 and rabbit cytochrome P450 reductase.
# Regenerating System: 333 mM glucose-6-phosphate and 40 U/mL glucose-6-phosphate dehydrogenase in 100 mM potassium phosphate buffer, pH 8.
# Vivid® CYP1A2 Blue Substrate.
# Vivid® Blue Standard: 3-cyano-7-hydroxycoumarin.
# 10 mM NADP^+ in 100 mM potassium phosphate buffer, pH 8.
# (§1) Tubes thawed on ice. 2× reaction buffer dispensed (room temperature) in two eppendorf tubes (for Mix A and Mix B).
# (§2) Controls or compounds of the invention: Diluted to a concentration of 50 μM. Positive control compound: α-naphthoflavone.
# (§3) Negative controls: DMSO and H2O.
# Mix A: 485 μL reaction buffer, 10 μL regeneration system, 5 μL Baculosome reagent. Mixed gently and placed on ice. […]
# In a 96-well plate (Costar c-3904), 40 μL of 50 μM sample dispensed. […] Fluorescence determined (Molecular Devices, SPECTRAmax Gemini EM): Ex: 409 nm, Em: 460 nm, at 37° C. for 20 min. (Automix: 5 s, top read.).
# [2] = target: T2, CYP2C9 (Homo sapiens, UniProt P11712); test: CYP2C9 assay (Vivid CYP2C9 Red Screening Kit); format: in vitro ADME; settings: 20 μM cutoff; read-out: Metabolism: CYP enzymes (20 μM cutoff or IC50) CYP2C9
# T2 construct: purchased PanVera Vivid CYP2C9 Red Screening Kit
# T2 sequence (P11712 whole entry): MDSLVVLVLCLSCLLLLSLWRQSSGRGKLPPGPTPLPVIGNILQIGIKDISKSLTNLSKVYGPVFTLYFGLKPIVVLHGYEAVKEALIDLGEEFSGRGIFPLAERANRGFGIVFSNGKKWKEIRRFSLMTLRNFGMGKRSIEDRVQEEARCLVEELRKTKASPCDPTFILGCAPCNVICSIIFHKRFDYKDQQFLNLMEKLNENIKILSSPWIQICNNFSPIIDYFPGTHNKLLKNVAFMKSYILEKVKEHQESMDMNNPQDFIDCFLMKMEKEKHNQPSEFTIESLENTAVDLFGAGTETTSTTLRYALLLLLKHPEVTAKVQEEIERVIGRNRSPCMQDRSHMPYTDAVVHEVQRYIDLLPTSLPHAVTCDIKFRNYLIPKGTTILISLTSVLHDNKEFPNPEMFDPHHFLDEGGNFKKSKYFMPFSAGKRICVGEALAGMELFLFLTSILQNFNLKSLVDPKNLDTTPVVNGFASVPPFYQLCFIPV
# Experimental: as §1, §2, §3
# (§4) Mix A: 485 μL reaction buffer, 10 μL regeneration system, 5 μL Baculosome reagent. Mixed gently and placed on ice.
# (§5) Mix B: 88.5 μL reaction buffer, 1.5 μL substrate, 10 μL 10 mM NADP^+.
# (§6) In a 96-well plate (Costar c-3904), 40 μL of 50 μM sample dispensed. 50 μl Mix A added. Incubated 20 min. at rt. Then, 10 μl of Mix B added. Fluorescence determined (Molecular Devices, SPECTRAmax Gemini EM): Ex: 409 nm, Em: 460 nm, at 37° C. for 20 min. (Automix: 5 s, top read.).
# (§7) Following the procedure for CYP1A2, using the appropriate kits below, the effect of a compound of the invention on the other CYP enzymes was determined:
# Vivid® CYP2C9 Red Screening Kit from PanVera.
# [3] = target: T3, CYP2D6 (Homo sapiens, UniProt P10635); test: CYP2D6 assay (Vivid CYP2D6 Cyan Screening Kit); format: in vitro ADME; settings: 20 μM cutoff; read-out: Metabolism: CYP enzymes (20 μM cutoff or IC50) CYP2D6
# T3 construct: purchased PanVera Vivid CYP2D6 Cyan Screening Kit
# T3 sequence (P10635 whole entry): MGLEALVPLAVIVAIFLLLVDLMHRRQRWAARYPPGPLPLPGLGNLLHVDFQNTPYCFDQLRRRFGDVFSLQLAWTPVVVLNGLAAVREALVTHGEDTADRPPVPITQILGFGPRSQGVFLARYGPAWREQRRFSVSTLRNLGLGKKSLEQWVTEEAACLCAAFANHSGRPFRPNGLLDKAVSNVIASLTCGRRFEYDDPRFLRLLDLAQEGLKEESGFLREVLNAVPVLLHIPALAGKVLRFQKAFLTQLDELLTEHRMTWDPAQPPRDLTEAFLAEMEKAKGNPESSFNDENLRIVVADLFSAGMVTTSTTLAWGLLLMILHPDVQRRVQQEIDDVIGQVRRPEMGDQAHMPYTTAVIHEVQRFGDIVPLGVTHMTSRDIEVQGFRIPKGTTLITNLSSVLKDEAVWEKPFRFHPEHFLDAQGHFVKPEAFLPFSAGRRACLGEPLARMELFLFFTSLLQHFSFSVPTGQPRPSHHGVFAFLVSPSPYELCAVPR
# Experimental: as §1, §2, §3, §4, §5, §6, §7
# Vivid® CYP2D6 Cyan Screening Kit from PanVera.
# [4] = target: T4, cellular rat DPP-I (RBL-2H3 cells) (Rattus norvegicus, UniProt P80067); test: Cellular DPP-I assay; format: cell-based; settings: concentration and time not given
# T4 construct: The RBL-2H3 cells (basophilic leukaemia cell line), were obtained from the American Type Culture Collection; endogenous in cells; host or cells: RBL-2H3 cells (ATCC)
# T4 sequence (P80067 25-462): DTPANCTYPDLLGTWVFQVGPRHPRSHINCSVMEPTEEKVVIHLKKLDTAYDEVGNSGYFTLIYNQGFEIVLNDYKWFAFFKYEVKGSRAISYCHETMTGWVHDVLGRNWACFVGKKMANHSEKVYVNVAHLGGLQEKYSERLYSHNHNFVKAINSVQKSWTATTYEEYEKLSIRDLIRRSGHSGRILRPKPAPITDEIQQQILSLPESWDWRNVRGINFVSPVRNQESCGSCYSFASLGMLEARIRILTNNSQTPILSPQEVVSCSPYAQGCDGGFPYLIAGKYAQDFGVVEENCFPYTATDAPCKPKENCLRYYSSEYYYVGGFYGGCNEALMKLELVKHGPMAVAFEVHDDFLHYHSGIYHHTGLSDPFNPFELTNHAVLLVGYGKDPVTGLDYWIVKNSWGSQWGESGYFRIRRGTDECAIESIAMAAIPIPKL
# Experimental: The following assay was used to the determine the inhibitory effect of compounds of the invention on cellular rat DPP-I.
# The RBL-2H3 cells (basophilic leukaemia cell line), were obtained from the American Type Culture Collection. Cells were cultured at 37° C. in humidified air atmosphere with 5% CO2. Cells were grown in complete media (CM) consisting of RPMI (GIBCO) supplemented with 10% heat-inactivated foetal bovine serum (FBS; GIBCO), 100 U/mL penicillin and 100 ug/mL streptomycin (GIBCO).
# All cell-based experiments employing inhibitors of DPP-I were performed by addition of the compound (kept below −20° C. as a 10 mM stock solution in DMSO (Sigma)) for indicated time and concentrations to sub-confluent cell cultures growing on culture dishes. All experiments were set up in triplicates. Following the treatment, cells were washed twice in ice-cold PBS (Sigma) and scraped from the culture dish. After another wash in PBS cells were lysed in ice-cold H2O containing 0.3% Triton×100. An additional volume of buffer containing 40 mM MOPS, 2M NaCl, 2 mM EDTA and 20% of glycerol was added. The cell lysate was clarified by centrifugation at 3000 rpm for 10 min. The resulting supernatant was transferred to eppendorf tubes. The Coomassie Plus Protein Assay (Pierece) was used to determine protein levels of the samples.
# In Vitro Measurement of DPP-I Activity: […]
structure (smiles),measurement,setting,value
"CC[C@H](N)C(=O)NNC(=O)N[C@@H](CCc1ccccc1)C(=O)N[C@@H](Cc1cccc(F)c1)C(N)=O [Example 11, 1-(2S-2-Aminobutanoyl)-4-[2S-N-[2S-3-(m-fluorophenyl)propan-2-yl-amide]-4-phenylbutan-2-yl-amide]semicarbazide] (H-[Abu][azaGly][hPhe][Phe(3-F)]-NH2)",IC50,[1],> 20 µM
same,IC50,[2],> 20 µM
same,IC50,[3],> 20 µM
same,Cellular (% inhibition) DPP-I (RBL-2H3 cells),[4],54%

# From patent US20070155803A1, “Protease inhibitors” (ProZymex A/S, priority 2003, published 2007)
